In patent US20210007356A1, “IMIDE DERIVATIVE AND FUNGICIDE CONTAINING SAID DERIVATIVE AS ACTIVE INGREDIENT” (HOKKO CHEMICAL INDUSTRY CO., LTD., priority 2018, published 2021):
Read-outs that look alike come from different tables or passages of the source.

Tests used:
[1] = tested on: barley powdery mildew fungus (Erysiphe graminis); test: Test Example 2: control effect against barley powdery mildew by foliage application; assay type: in vivo; conditions: wettable powder diluted to 100 ppm, 10 mL per pot foliage spray on barley; inoculated day after; 7 days after inoculation
[2] = tested on: rice blast fungus (Pyricularia grisea); assay type: in vivo; conditions: flowable 5,000 ppm, 50 mL irrigation of nursery box, paddy rice; inoculated after 3 weeks; 7 days after inoculation
[3] = tested on: rice blast fungus (Pyricularia grisea); assay type: in vivo; conditions: 5 g of granule on nursery box, paddy rice; inoculated after 3 weeks; 7 days after inoculation
[4] = tested on: rice blast fungus (Pyricularia grisea); assay type: in vivo; conditions: flowable 1,000 ppm, 1 mL dripped in paddy water, inoculated after 1 week, 7 days after inoculation
[5] = tested on: rice sheath blight fungus (Thanatephorus cucumeris); test: Test Example 8: control effect against rice sheath blight by box treatment (granule); conditions: 5 g of granule on nursery box, paddy rice; inoculated after 3 weeks; 7 days after inoculation
[6] = tested on: rice sheath blight fungus (Thanatephorus cucumeris); test: Test Example 6: control effect against rice sheath blight by box treatment (flowable formulation); conditions: flowable 5,000 ppm, 50 mL irrigation of nursery box, paddy rice; inoculated after 3 weeks; 7 days after inoculation
Method: Control value (%)=[1−(lesion height in sprayed plot/lesion height in unsprayed plot)]×100 (d)
By irrigation, 50 mL of a diluted solution (5,000 ppm) of a flowable prepared according to Formulation Example-3 was applied to a 2.5-leaf-stage paddy rice (variety: Asahi) seedling raised using a nursery box ( 1/10 the area of standard nursery box in size: 12 cm×15 cm×height 4 cm) within a greenhouse. The formulation-treated paddy rice seedling was immediately transplanted at 5 seedlings/pot into a pot ( 1/10000 are in size) filled with paddy soil (flooded). After growing for 3 weeks within a greenhouse, a culture of rice sheath blight fungus (Thanatephorus cucumeris) grown in advance on a rice straw medium was inoculated into the root of the formulation-treated paddy rice, and disease development was promoted in an artificial weather chamber at 26° C. (relative humidity=100%). Seven days after the inoculation, the rice sheath blight lesion height (height from the root) was examined, and the control value (%) was calculated according to formula (d). […] This test was performed with three replications, each consisting of one plot and one pot, per one formulation plot, and its average evaluation value of control effect was determined.

[7] = tested on: rice sheath blight fungus (Thanatephorus cucumeris); test: Test Example 10: control effect against rice sheath blight by water surface application (flowable formulation); conditions: flowable 1,000 ppm, 1 mL dripped in paddy water, inoculated after 1 week, 7 days after inoculation

SMILES	evaluation value of control effect (from control value, lesion area percentage) [1]	evaluation value of control effect (from control value, number of lesions) [2]	evaluation value of control effect (from control value, number of lesions) [3]	evaluation value of control effect (from control value, number of lesions) [4]	evaluation value of control effect (from control value, lesion height) [5]	evaluation value of control effect (from control value, lesion height) [6]	evaluation value of control effect (from control value, lesion height) [7]
CC(C)CC(C)c1ccccc1N(C(=O)c1cccnc1F)C(=O)c1snc(Cl)c1Cl (centres unmarked) [13-51]	4	5	5	5			
Cc1ncccc1C(=O)N(C(=O)c1snc(Cl)c1Cl)c1ccccc1C(C)CC(C)C (centres unmarked) [13-52]	4	5	5	5			
CC1CC(C)(C)c2cccc(N(C(=O)c3cn(C)nc3C(F)F)C(=O)c3cccc4nnsc34)c21 (centres unmarked) [25-73]	5	5	5	5			
CC1CC(C)(C)c2cccc(N(C(=O)c3cn(C)nc3C(F)F)C(=O)c3scnc3C(F)F)c21 (centres unmarked) [25-109]	4	5	5	5			
Cc1nn(C)c(Cl)c1C(=O)N(C(=O)c1snnc1C(F)F)c1cccc2c1C(C)OC2(C)C (centres unmarked) [25-117]		5	5	5	5	5	5
Cc1nn(C)c(Cl)c1C(=O)N(C(=O)c1cccc2nnsc12)c1cccc2c1C(C)OC2(C)C (centres unmarked) [25-118]		5	5	5			
CCc1nc(C(F)F)c(C(=O)N(C(=O)c2sc(C)nc2C(F)F)c2cccc3c2C(C)OC3(C)C)s1 (centres unmarked) [26-70]		5	5	5	5	5	5
Cc1nc(C(F)F)c(C(=O)N(C(=O)c2cc(Cl)c(Cl)s2)c2cccc3c2C(C)CC3(C)C)s1 (centres unmarked) [26-87]		5	5	5			
Cc1nc(C(F)F)c(C(=O)N(C(=O)c2cc(Cl)c(Cl)s2)c2cccc3c2C(C)OC3(C)C)s1 (centres unmarked) [26-90]		5	5	5	5	5	5
Cc1nc(C(F)F)c(C(=O)N(C(=O)c2onc(Cl)c2Cl)c2cccc3c2C(C)OC3(C)C)s1 (centres unmarked) [26-92]		5	5	5	5	5	5
CC1CC(C)(C)c2cccc(N(C(=O)c3cccnc3C(F)F)C(=O)c3snc(Cl)c3Cl)c21 (centres unmarked) [27-3]	5				5	5	5
CC1OC(C)(C)c2cccc(N(C(=O)c3cccnc3C(F)F)C(=O)c3cccc4nnsc34)c21 (centres unmarked) [27-28]		5	5	5	5	5	5
Cc1nc(C(F)F)c(C(=O)N(C(=O)c2cccnc2C(F)F)c2cccc3c2C(C)OC3(C)C)s1 (centres unmarked) [27-36]		5	5	5	5	5	5
